In general, IC50 refers to the concentration at which inhibition is half-maximal. Higher therefore signals weaker potency. What is called inhibition is how much of the control response was suppressed. As a reminder, the solubility is how much of the substance goes into solution per volume. A lower solubility goes with a poorly soluble substance. By half-life is commonly meant the time in which the quantity being followed falls by half. Higher therefore signals slow loss. As usually defined, the microsomal CLint is the rate of metabolic loss divided by the concentration. Higher therefore signals faster metabolism.

Series [1] concerns the target T1, Polyunsaturated fatty acid lipoxygenase ALOX15 (Homo sapiens, UniProt P16050).
T1 sequence (P16050 whole entry): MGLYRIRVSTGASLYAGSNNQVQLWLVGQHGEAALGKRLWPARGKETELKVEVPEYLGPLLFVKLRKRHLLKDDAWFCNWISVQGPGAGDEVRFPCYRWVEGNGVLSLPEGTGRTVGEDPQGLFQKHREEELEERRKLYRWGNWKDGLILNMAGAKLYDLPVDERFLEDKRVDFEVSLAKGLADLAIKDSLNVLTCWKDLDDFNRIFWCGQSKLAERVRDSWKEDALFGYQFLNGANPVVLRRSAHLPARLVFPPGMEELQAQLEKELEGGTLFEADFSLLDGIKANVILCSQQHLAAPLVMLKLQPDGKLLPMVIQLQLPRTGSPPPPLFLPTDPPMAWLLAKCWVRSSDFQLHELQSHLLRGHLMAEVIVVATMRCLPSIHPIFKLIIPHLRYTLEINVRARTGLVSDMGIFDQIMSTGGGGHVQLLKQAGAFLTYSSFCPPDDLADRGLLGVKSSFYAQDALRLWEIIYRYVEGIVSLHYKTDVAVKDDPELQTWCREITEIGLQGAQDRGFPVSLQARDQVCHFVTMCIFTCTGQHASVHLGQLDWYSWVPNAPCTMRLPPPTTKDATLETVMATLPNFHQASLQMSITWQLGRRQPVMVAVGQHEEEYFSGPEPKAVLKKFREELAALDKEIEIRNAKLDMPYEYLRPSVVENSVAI
Description: (§4) Inhibition of human 15-LOX-1 expressed in Sf9 cells assessed as reduction in conversion of arachidonic acid to 15-HETE pre-incubated 5 min before arachidonic acid substrate addition by HPLC-UV spectroscopy

For series [2], the target named is T1, Polyunsaturated fatty acid lipoxygenase ALOX15. This is another data set of the same source.
Description: (§5) Inhibition of 15-LOX-1 in human L1236 cells assessed as reduction in conversion of arachidonic acid to 15-HETE pre-incubated 5 min before arachidonic acid substrate addition by HPLC-UV spectroscopy
The target is the same in series [3]. The conditions noted are these: l1236.
Description: as §5
The target is the same in series [4]. The conditions noted are these: sf9.
Description: as §4
Series [5] addresses T2, Prostaglandin G/H synthase 2 (Homo sapiens) (UniProt P35354).
T2 sequence (whole entry): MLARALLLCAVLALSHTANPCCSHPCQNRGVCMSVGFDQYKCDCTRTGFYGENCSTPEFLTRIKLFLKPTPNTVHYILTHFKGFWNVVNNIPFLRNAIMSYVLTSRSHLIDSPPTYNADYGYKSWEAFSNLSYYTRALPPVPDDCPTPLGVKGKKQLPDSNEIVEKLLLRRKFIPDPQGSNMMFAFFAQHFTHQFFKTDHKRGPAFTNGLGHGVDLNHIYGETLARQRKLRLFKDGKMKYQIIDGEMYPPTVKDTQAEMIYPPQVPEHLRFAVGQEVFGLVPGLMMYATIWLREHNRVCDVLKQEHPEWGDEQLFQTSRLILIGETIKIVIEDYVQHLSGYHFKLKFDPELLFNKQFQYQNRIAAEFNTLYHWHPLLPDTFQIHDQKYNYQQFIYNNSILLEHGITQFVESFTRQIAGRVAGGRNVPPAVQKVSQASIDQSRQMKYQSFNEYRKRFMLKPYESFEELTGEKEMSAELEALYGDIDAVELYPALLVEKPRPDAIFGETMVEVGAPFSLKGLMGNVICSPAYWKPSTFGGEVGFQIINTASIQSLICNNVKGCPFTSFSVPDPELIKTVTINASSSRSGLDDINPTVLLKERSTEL
In words: Inhibition of human recombinant COX2 assessed as reduction in PGH2-derived PGF2alpha production at 10 uM by enzyme immunoassay.

Series [6] is described as follows: Aqueous solubility in pH 7.4 buffer. Format: physicochemical.
The subject of another series is Escherichia coli. In words: Genotoxicity in Escherichia coli by SOS/umu test. Format: toxicity, organism-based.
Series [7] is described as follows: Aqueous solubility in pH 2.0 buffer. Format: physicochemical.
Series [8] deals with T3, Prostaglandin G/H synthase 1 (Ovis aries) (UniProt P05979).
T3 sequence (whole entry): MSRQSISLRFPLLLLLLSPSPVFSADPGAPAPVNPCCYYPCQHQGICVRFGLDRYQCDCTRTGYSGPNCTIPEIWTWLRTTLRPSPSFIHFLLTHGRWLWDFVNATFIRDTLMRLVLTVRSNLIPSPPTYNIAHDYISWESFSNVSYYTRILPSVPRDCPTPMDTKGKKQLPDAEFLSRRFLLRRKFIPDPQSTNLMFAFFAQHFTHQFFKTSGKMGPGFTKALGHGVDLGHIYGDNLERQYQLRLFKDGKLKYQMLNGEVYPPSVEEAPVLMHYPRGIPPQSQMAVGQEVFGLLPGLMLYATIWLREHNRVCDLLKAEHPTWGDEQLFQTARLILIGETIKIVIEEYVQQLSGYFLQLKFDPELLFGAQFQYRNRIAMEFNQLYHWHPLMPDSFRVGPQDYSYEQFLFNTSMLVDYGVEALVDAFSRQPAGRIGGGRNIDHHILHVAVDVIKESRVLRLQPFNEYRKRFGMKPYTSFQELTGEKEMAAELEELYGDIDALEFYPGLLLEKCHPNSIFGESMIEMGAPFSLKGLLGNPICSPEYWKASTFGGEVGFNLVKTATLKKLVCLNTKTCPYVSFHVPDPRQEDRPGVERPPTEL
The series can be described thus: Inhibition of ovine COX1 assessed as reduction in PGH2-derived PGF2alpha production at 10 uM by enzyme immunoassay.

Series [9] can be described thus: Aqueous solubility in pH 10 buffer. Format: physicochemical.
The target of series [10] is T4, Cytochrome P450 2C9 (Homo sapiens, UniProt P11712). The series can be described thus: Inhibition of human CYP2C9. It is filed as ADME.
A short description of series [11]: Half life in human microsomes. It is filed as ADME, Microsome.
For series [12], the target named is Voltage-gated inwardly rectifying potassium channel KCNH2 (Homo sapiens, UniProt Q12809). The series can be described thus: Inhibition of human ERG.
A further series has as its target Cytochrome P450 1A2 (Homo sapiens, UniProt P05177). In words: (§1) Inhibition of human CYP1A2 at 10 uM. It is filed as ADME. The conditions noted are these: 10 µM.
Series [13] addresses T5, Cytochrome P450 2C19 (Homo sapiens, UniProt P33261). The series can be described thus: (§2) Inhibition of human CYP2C19 at 10 uM. It is filed as ADME. The conditions noted are these: 10 µM.
Series [14] deals with T5, Cytochrome P450 2C19. The series can be described thus: Inhibition of human CYP2C19. Format: ADME.
Series [15] addresses T4, Cytochrome P450 2C9. The series can be described thus: (§3) Inhibition of human CYP2C9 at 10 uM. Format: ADME. Particulars: 10 µM.
Series [16] in a line: Protein binding in plasma (unknown origin). Format: ADME, cell-free. The conditions noted are these: read-out: PPB (converted).
Another series deals with Caco-2. The series can be described thus: Permeability in human Caco2 cells. Format: ADME, cell-based.
The nature of series [17]: Intrinsic clearance in human microsomes. It is filed as ADME, Microsome.
For series [18], the target named is Polyunsaturated fatty acid 5-lipoxygenase (Homo sapiens) (UniProt P09917). In words: Inhibition of 5-LOX in calcium ionophore and arachidonic acid-stimulated purified human granulocytes assessed as reduction in LTB4 formation at 10 uM by HPLC-UV spectroscopy.
The target of another series is CYP1A2 (Homo sapiens, UniProt P05177). The series is described as §1. It is filed as ADME.
The target in the next series is CYP2C19 (Homo sapiens, UniProt P33261). The series is described as §2. Format: ADME.
In a further series the target is CYP2C9 (Homo sapiens, UniProt P11712). Described as §3. It is filed as ADME.
Series [19] addresses T6, Cytochrome P450 3A4 (Homo sapiens, UniProt P08684). The series can be described thus: Inhibition of human CYP3A4 at 10 uM. Format: ADME.
Series [20] deals with T6, Cytochrome P450 3A4. In words: Inhibition of human CYP3A4. It is filed as ADME.
In series [21] the target is Polyunsaturated fatty acid lipoxygenase ALOX12 (Homo sapiens) (UniProt P18054). The series can be described thus: Inhibition of human platelet 12-LOX assessed as reduction in conversion of arachidonic acid to […] at 10 uM pre-incubated 5 min before arachidonic acid substrate addition by HPLC-UV spectroscopy.
Another series has as its target CYP2D6 (Homo sapiens, UniProt P10635). In words: Inhibition of human CYP2D6 at 10 uM. It is filed as ADME.

≈ marks a conversion by molar mass, not a printed value. Calls of active or inactive are those of the source. The calls are words filed in the database; no cut-off is given here.

T5 sequence (P33261 whole entry): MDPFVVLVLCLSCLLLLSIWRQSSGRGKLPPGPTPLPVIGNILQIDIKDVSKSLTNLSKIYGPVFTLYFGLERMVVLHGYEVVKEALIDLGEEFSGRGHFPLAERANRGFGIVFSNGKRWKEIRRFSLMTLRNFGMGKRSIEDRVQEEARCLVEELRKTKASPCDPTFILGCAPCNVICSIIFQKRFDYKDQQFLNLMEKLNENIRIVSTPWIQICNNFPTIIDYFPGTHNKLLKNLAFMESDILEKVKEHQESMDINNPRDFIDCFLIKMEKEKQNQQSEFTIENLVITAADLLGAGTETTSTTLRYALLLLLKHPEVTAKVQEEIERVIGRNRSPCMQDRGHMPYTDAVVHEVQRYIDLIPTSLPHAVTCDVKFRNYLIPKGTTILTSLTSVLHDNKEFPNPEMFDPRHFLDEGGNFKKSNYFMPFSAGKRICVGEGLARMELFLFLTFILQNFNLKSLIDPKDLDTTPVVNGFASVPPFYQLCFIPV
T4 sequence (P11712 whole entry): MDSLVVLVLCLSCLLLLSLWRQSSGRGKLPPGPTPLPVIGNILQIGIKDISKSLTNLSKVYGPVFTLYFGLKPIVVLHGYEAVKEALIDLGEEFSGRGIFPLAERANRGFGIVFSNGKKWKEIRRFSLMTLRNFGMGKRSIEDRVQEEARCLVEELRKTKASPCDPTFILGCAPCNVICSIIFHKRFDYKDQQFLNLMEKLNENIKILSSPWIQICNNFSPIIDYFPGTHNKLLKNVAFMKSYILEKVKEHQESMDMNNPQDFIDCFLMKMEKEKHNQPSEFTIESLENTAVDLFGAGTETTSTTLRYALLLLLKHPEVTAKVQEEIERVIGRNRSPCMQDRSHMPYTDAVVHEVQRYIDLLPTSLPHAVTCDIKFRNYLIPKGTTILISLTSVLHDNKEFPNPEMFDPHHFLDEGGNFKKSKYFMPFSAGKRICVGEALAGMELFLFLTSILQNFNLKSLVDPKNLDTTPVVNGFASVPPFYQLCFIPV
Sequence of Voltage-gated inwardly rectifying potassium channel KCNH2 (Q12809 whole entry): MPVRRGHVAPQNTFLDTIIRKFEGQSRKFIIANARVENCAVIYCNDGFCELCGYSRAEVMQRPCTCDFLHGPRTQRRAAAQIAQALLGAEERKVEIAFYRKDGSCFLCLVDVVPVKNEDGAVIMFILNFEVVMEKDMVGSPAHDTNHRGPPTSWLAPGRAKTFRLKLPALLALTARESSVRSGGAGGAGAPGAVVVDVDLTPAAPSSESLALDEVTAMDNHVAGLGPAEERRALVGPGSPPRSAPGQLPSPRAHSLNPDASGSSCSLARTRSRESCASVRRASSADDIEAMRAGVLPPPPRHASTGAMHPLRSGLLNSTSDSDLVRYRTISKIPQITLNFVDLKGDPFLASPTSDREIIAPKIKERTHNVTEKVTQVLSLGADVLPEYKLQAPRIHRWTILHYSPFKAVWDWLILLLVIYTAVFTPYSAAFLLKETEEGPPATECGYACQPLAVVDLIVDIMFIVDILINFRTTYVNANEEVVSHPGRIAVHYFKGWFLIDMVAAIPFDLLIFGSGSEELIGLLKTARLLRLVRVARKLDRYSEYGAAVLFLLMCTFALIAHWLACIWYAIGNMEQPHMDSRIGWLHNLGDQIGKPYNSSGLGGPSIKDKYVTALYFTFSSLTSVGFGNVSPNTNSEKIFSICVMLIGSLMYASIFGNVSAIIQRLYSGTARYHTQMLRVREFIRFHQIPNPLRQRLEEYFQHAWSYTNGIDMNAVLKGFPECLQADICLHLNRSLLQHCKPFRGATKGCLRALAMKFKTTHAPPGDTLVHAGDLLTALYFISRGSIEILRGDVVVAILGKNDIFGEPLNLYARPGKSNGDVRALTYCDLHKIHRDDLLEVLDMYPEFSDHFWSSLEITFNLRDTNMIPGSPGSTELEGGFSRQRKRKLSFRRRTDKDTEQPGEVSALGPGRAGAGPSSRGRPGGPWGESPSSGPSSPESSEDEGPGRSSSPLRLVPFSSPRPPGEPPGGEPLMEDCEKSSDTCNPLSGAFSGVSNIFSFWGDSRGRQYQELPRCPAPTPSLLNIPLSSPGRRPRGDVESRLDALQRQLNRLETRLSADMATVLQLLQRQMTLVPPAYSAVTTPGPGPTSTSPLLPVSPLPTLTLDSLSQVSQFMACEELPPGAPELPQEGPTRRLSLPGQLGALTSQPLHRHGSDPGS
T6 sequence (P08684 whole entry): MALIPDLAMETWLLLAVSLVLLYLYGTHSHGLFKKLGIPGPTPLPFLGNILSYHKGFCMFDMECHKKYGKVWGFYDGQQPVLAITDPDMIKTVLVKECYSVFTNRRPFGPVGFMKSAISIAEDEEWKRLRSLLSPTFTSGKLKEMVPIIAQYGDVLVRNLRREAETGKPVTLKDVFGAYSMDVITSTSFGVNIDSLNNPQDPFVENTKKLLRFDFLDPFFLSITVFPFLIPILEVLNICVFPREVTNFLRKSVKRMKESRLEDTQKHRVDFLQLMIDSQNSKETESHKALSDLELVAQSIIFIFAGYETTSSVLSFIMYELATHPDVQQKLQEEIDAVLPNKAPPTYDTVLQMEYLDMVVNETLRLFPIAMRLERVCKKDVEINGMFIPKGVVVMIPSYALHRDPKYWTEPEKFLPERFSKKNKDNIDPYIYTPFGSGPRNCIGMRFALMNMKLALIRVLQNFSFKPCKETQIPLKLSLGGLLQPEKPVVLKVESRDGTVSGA
Sequence of CYP2C19 (P33261 whole entry): as the sequence (P33261 whole entry) above
Sequence of Cytochrome P450 1A2 (P05177 whole entry): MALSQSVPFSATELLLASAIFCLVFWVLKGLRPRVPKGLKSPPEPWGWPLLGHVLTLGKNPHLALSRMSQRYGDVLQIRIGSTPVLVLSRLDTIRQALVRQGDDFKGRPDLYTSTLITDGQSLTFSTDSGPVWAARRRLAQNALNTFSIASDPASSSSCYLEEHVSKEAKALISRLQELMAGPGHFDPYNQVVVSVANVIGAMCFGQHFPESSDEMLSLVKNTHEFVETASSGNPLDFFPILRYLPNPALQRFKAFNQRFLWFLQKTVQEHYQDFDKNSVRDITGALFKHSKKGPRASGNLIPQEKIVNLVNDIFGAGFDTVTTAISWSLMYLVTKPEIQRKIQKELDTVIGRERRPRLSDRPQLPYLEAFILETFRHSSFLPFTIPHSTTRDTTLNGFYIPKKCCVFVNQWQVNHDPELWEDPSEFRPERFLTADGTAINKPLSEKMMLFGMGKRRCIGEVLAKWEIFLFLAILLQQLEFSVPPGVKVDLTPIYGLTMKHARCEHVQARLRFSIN
Sequence of CYP1A2 (P05177 whole entry): as above
Sequence of CYP2C9 (P11712 whole entry): as the sequence (P11712 whole entry) above
Sequence of CYP2D6 (P10635 whole entry): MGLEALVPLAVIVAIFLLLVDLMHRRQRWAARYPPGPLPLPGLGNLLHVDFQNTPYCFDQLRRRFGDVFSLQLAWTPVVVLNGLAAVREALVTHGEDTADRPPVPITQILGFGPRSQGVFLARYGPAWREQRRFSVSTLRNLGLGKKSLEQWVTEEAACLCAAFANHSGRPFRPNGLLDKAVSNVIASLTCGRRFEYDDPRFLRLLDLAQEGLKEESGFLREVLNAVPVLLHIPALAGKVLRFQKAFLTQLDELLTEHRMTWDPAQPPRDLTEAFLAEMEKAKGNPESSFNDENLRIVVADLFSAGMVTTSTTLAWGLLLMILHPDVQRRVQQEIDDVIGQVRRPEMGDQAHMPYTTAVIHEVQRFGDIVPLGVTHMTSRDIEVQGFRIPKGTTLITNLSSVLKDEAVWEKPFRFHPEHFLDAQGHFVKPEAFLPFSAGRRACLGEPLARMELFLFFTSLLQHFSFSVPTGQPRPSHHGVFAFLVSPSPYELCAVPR

`O=C(Nc1ccccc1Cl)c1cn[nH]n1`: the IC50 in series [1] worked out at 6.98 µM; in [2], 0.392 µM.

Take `CS(=O)(=O)Nc1c[nH]nc1C(=O)Nc1ccc(F)cc1Cl`: the IC50 result in series [3] is “Not Active”.

For the compound `Nc1cc(C(=O)Nc2ccc(F)cc2Cl)n[nH]1`, the results for the IC50 in [1] and in series [2] were 5.98 µM and 0.334 µM, respectively.

With `c1ccc2oc(-c3cc[nH]n3)nc2c1`, the IC50 came out at 3.27 µM in series [1] and 0.638 µM in series [2].

As for `O=C(Nc1ccc(F)cn1)c1cn[nH]n1`, the concentration for half-maximal inhibition (IC50) in series [1] is 3.97 µM; in [2], 3.11 µM.

With `O=C(Nc1ccccn1)c1cc[nH]n1`, the IC50 in series [1] is 1.21 µM; in series [2], 3.41 µM.

Turning to `CN(C(=O)c1cc[nH]n1)c1ccccc1Cl`, the IC50 entry in series [4] and in series [3] was “Not Active” in each case.

With `O=C(Nc1ccc(F)cc1Cl)c1n[nH]cc1-c1ccccc1`, the half-maximal inhibitory concentration (IC50) result in [3] is on record as “Not Active”.

In the case of `O=C(Nc1cnc2ccccc2c1)c1cn[nH]n1`, in series [2], the IC50 stood at 1.02 µM. That is a single-digit micromolar value.

With `Cc1c(C(=O)Nc2ccc(F)cc2Cl)n[nH]c1[Si](C)(C)C`, the IC50 turned out to be 0.672 µM in series [1] and 1.33 µM in [2].

Take `CS(=O)(=O)Nc1cc(C(=O)Nc2ccc(F)cc2Cl)n[nH]1`: the IC50 entry in [3] is on record as “Not Active”.

Regarding `O=C(Nc1ccncc1)c1cc[nH]n1`, the half-inhibitory concentration (IC50) result in series [3] is on record as “Not Active”.

Take `O=C(Nc1ccc2ccccc2n1)c1cc[nH]n1`: the inhibition result in [5] was “inactive”. In addition, the solubility is 10.1 µg/mL (≈ 42.4 µM) in series [6], 573 µg/mL (≈ 2410 µM) in series [7] and 10.1 µg/mL (≈ 42.4 µM) in series [9]. The Activity result in the series with Escherichia coli was “Non-toxic”. Moreover, the IC50 was 0.18 µM in series [1], 0.092 µM in series [2], “Not Active” at Cytochrome P450 2C9 [10] and “Not Active” against Cytochrome P450 2C19 [14]. Moreover, in series [8], the inhibition worked out at 9%. Besides, in [11], the half-life was > 100 min. Also, the “inhibition (INH)” value was “Not Active” in [12], 75% at Cytochrome P450 1A2, “Not Active” at Cytochrome P450 2C19 [13] and “Not Active” on Cytochrome P450 2C9 [15]. In addition, the fraction unbound in series [16] was 0.072. Besides, in the series on Caco-2, the permeability result is listed as “permeable”. The compound further yielded an intrinsic clearance (microsomal CLint) in series [17] of 7 µL/min/mg.

Consider `O=C(Nc1ccc(F)cc1Cl)c1cc([N+](=O)[O-])[nH]n1`, for which the results for the 50% inhibitory concentration (IC50) result in series [4] and in series [2] were “Not Active” and 3.29 µM, respectively.

As to `O=C(Nc1ccc(F)cc1)c1cn[nH]n1`, the 50% inhibitory concentration (IC50) was 0.947 µM in series [1] and 2.43 µM in [2].

With `O=C(Nc1cccnc1)c1ccn[nH]1`, the IC50 result in series [3] is “Not Active”.

With `Clc1ccc2nc(-c3n[nH]c(Cl)c3Cl)oc2c1`, the IC50 in series [1] was 0.002 µM; in [2] it was 0.034 µM.

For `O=C(NCc1ccccc1)c1cc[nH]n1`, the IC50 result in [4] is listed as “Not Active”.

As to `O=C(Nc1ccc(F)cc1Cl)c1n[nH]cc1[N+](=O)[O-]`, the IC50 amounted to 5.9 µM in series [1] and 0.616 µM in series [2].

For `O=C(Nc1ccc(F)cn1)c1cc[nH]n1`, the inhibition result in [5] and in [8] was “inactive” in each case. The solubility in series [6] stood at 3.4 µg/mL (≈ 16.5 µM). Moreover, in the series with Escherichia coli, the Activity result is “Non-toxic”. The inhibition in [18] and in series [21] was < 50% throughout. The compound further gave a half-life in [11] of 36 min. The “inhibition (INH)” value (in [12]; against Cytochrome P450 3A4 [19]) was “Not Active” throughout. Further, the inhibition at 10 µM against CYP1A2 turned out to be 45%; at CYP2C19 it was 6%; against CYP2C9, 26%; against CYP2D6, 9%. Moreover, the fraction unbound in series [16] is 0.071. At Cytochrome P450 3A4 [20], the IC50 result was “Not Active”. The permeability result in the series on Caco-2 is given as “permeable”. Also, the microsomal CLint in [17] came to 17 µL/min/mg.

As for `O=C(Nc1ccc(F)cc1)c1cc[nH]n1`, inhibition in series [2] was half-maximal at 0.27 µM (IC50). In other words, the sub-micromolar range.

These data come from ChEMBL document CHEMBL3603736, “3-Substituted pyrazoles and 4-substituted triazoles as inhibitors of human 15-lipoxygenase-1” (Bioorg Med Chem Lett, 2015).
